According to ChEMBL document CHEMBL3991601, “The target landscape of clinical kinase drugs” (Science, 2017):
Activity calls are given as the source filed them. For most assays here, no stated cut-off is given here; in the data, actives have a measured Kd and inactives only a lower limit.

biological target: Ribosomal protein S6 kinase alpha-1 (Homo sapiens, UniProt Q15418)
Sequence (Q15418 whole entry): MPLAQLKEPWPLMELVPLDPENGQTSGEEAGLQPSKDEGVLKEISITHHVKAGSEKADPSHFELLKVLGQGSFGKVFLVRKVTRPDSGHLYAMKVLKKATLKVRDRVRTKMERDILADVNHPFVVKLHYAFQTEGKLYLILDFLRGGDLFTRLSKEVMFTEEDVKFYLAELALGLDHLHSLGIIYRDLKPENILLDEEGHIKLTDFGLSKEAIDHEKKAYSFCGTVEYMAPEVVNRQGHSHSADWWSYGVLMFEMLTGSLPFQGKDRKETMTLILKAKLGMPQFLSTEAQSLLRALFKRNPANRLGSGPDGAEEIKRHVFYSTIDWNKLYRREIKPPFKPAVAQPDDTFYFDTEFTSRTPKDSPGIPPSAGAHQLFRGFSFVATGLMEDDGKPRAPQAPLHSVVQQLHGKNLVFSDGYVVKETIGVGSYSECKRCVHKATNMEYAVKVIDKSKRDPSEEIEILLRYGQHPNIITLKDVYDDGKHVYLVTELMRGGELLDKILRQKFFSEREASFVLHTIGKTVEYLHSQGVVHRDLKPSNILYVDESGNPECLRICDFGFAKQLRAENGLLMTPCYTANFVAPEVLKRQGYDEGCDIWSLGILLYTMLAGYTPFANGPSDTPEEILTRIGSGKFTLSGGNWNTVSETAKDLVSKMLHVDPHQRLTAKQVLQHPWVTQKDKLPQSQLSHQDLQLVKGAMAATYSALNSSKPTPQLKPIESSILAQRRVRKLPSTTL

Row | SMILES | Kd
1 | CN1CCC(CNc2ccc3ncc(-c4cccc(OC(F)(F)F)c4)n3n2)CC1 [SGI-1776] | > 30 µM (inactive)
2 | O=c1sn(-c2cccc3ccccc23)c(=O)n1Cc1ccccc1 [TIDEGLUSIB] | > 30 µM (inactive)
3 | CC(=O)Nc1cccc(-n2c(=O)n(C3CC3)c(=O)c3c(Nc4ccc(I)cc4F)n(C)c(=O)c(C)c32)c1 [TRAMETINIB] | > 30 µM (inactive)

biological target: DNA topoisomerase 2-alpha (Homo sapiens, UniProt P11388)

Row | SMILES | Kd
4 | CN1CCC(CNc2ccc3ncc(-c4cccc(OC(F)(F)F)c4)n3n2)CC1 [SGI-1776] | > 30 µM (inactive)
5 | O=c1sn(-c2cccc3ccccc23)c(=O)n1Cc1ccccc1 [TIDEGLUSIB] | > 30 µM (inactive)
6 | CC(=O)Nc1cccc(-n2c(=O)n(C3CC3)c(=O)c3c(Nc4ccc(I)cc4F)n(C)c(=O)c(C)c32)c1 [TRAMETINIB] | > 30 µM (inactive)

biological target: T1, Serine/threonine-protein kinase D3 (Homo sapiens, UniProt O94806)
T1 sequence (O94806 whole entry): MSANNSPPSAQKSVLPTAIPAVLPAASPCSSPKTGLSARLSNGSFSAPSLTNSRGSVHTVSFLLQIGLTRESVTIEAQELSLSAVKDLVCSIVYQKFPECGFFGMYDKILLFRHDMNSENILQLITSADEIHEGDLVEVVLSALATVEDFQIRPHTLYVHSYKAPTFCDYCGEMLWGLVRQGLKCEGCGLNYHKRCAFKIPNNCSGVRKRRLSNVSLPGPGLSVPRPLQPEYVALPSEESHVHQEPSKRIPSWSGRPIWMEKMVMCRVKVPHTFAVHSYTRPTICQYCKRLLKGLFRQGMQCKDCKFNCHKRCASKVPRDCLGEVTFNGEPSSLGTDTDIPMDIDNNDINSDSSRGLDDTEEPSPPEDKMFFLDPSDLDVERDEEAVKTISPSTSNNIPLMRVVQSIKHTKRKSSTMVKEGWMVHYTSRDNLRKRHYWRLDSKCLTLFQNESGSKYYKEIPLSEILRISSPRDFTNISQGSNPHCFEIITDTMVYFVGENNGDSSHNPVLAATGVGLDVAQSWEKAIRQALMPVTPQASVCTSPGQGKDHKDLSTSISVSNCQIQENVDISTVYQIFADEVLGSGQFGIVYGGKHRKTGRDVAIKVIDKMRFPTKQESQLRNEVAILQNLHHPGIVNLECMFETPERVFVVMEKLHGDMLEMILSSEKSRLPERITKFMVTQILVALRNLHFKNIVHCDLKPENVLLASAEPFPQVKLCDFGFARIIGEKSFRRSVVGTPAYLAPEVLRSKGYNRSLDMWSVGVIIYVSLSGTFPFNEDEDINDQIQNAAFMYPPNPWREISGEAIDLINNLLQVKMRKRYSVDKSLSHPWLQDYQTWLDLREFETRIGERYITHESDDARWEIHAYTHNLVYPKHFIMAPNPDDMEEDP

Row | SMILES | Kd
7 | CN1CCC(CNc2ccc3ncc(-c4cccc(OC(F)(F)F)c4)n3n2)CC1 [SGI-1776] | > 30 µM (inactive)
8 | O=c1sn(-c2cccc3ccccc23)c(=O)n1Cc1ccccc1 [TIDEGLUSIB] | > 30 µM (inactive)
9 | CC(=O)Nc1cccc(-n2c(=O)n(C3CC3)c(=O)c3c(Nc4ccc(I)cc4F)n(C)c(=O)c(C)c32)c1 [TRAMETINIB] | > 30 µM (inactive)

biological target: Aurora kinase B (Homo sapiens, UniProt Q96GD4)

Row | SMILES | Kd
10 | CN1CCC(CNc2ccc3ncc(-c4cccc(OC(F)(F)F)c4)n3n2)CC1 [SGI-1776] | > 30 µM (inactive)
11 | O=c1sn(-c2cccc3ccccc23)c(=O)n1Cc1ccccc1 [TIDEGLUSIB] | > 30 µM (inactive)
12 | CC(=O)Nc1cccc(-n2c(=O)n(C3CC3)c(=O)c3c(Nc4ccc(I)cc4F)n(C)c(=O)c(C)c32)c1 [TRAMETINIB] | > 30 µM (inactive)

biological target: Cyclin-dependent kinase 5 (Homo sapiens, UniProt Q00535)
Sequence (Q00535 whole entry): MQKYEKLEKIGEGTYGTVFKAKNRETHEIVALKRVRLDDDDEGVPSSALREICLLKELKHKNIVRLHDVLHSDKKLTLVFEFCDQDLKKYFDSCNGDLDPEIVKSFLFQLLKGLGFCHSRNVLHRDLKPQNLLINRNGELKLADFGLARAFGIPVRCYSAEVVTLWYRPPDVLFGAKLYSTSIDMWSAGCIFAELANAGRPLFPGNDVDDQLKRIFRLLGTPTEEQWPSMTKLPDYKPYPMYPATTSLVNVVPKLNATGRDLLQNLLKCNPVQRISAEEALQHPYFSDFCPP

Row | SMILES | Kd
13 | CN1CCC(CNc2ccc3ncc(-c4cccc(OC(F)(F)F)c4)n3n2)CC1 [SGI-1776] | > 30 µM (inactive)
14 | O=c1sn(-c2cccc3ccccc23)c(=O)n1Cc1ccccc1 [TIDEGLUSIB] | > 30 µM (inactive)
15 | CC(=O)Nc1cccc(-n2c(=O)n(C3CC3)c(=O)c3c(Nc4ccc(I)cc4F)n(C)c(=O)c(C)c32)c1 [TRAMETINIB] | > 30 µM (inactive)

biological target: Cyclin-dependent kinase 7 (Homo sapiens, UniProt P50613)
Sequence (P50613 whole entry): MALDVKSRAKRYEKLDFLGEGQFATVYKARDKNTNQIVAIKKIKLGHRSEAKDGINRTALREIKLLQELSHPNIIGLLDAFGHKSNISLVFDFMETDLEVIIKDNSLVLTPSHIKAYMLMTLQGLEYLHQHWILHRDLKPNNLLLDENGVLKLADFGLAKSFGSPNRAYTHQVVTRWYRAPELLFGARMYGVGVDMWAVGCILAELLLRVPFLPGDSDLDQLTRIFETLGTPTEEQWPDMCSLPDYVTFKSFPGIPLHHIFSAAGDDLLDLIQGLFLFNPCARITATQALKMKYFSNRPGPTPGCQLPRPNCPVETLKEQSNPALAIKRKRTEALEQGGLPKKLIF

Row | SMILES | Kd
16 | CN1CCC(CNc2ccc3ncc(-c4cccc(OC(F)(F)F)c4)n3n2)CC1 [SGI-1776] | > 30 µM (inactive)
17 | O=c1sn(-c2cccc3ccccc23)c(=O)n1Cc1ccccc1 [TIDEGLUSIB] | > 30 µM (inactive)
18 | CC(=O)Nc1cccc(-n2c(=O)n(C3CC3)c(=O)c3c(Nc4ccc(I)cc4F)n(C)c(=O)c(C)c32)c1 [TRAMETINIB] | > 30 µM (inactive)

biological target: T2, Calcium/calmodulin-dependent protein kinase type IV (Homo sapiens, UniProt Q16566)
T2 sequence (Q16566 whole entry): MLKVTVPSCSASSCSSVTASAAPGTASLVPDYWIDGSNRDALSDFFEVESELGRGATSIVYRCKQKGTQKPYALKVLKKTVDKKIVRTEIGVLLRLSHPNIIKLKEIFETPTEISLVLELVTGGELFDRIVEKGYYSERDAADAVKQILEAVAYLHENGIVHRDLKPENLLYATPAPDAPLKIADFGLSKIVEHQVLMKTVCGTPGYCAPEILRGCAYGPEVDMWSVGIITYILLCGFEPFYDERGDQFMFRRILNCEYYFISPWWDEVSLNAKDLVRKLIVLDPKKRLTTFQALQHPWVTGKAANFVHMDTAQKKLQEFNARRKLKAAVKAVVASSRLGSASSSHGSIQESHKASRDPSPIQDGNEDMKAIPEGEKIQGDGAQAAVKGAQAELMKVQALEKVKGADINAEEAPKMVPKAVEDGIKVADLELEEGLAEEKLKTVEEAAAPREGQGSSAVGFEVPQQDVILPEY

Row | SMILES | Kd
19 | CN1CCC(CNc2ccc3ncc(-c4cccc(OC(F)(F)F)c4)n3n2)CC1 [SGI-1776] | > 30 µM (inactive)
20 | O=c1sn(-c2cccc3ccccc23)c(=O)n1Cc1ccccc1 [TIDEGLUSIB] | > 30 µM (inactive)
21 | CC(=O)Nc1cccc(-n2c(=O)n(C3CC3)c(=O)c3c(Nc4ccc(I)cc4F)n(C)c(=O)c(C)c32)c1 [TRAMETINIB] | > 30 µM (inactive)

biological target: T3, Membrane-associated tyrosine- and threonine-specific cdc2-inhibitory kinase (Homo sapiens, UniProt Q99640)
T3 sequence (Q99640 whole entry): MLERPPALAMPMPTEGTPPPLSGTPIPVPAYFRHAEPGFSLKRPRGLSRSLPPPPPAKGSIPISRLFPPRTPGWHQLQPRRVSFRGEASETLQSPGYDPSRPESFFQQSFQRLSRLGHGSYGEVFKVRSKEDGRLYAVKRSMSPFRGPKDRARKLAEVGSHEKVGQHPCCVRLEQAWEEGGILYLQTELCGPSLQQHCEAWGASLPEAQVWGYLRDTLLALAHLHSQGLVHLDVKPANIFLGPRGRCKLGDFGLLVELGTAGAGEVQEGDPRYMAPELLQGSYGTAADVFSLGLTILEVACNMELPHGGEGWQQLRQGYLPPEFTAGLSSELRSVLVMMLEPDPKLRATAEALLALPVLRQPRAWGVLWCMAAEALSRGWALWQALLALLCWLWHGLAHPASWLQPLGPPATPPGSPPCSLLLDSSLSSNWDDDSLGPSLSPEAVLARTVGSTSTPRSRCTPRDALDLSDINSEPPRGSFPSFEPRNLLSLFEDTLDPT

Row | SMILES | Kd
22 | CN1CCC(CNc2ccc3ncc(-c4cccc(OC(F)(F)F)c4)n3n2)CC1 [SGI-1776] | > 30 µM (inactive)
23 | O=c1sn(-c2cccc3ccccc23)c(=O)n1Cc1ccccc1 [TIDEGLUSIB] | > 30 µM (inactive)
24 | CC(=O)Nc1cccc(-n2c(=O)n(C3CC3)c(=O)c3c(Nc4ccc(I)cc4F)n(C)c(=O)c(C)c32)c1 [TRAMETINIB] | > 30 µM (inactive)

biological target: Insulin receptor (Homo sapiens, UniProt P06213)
Sequence (P06213 28-758 limits assumed): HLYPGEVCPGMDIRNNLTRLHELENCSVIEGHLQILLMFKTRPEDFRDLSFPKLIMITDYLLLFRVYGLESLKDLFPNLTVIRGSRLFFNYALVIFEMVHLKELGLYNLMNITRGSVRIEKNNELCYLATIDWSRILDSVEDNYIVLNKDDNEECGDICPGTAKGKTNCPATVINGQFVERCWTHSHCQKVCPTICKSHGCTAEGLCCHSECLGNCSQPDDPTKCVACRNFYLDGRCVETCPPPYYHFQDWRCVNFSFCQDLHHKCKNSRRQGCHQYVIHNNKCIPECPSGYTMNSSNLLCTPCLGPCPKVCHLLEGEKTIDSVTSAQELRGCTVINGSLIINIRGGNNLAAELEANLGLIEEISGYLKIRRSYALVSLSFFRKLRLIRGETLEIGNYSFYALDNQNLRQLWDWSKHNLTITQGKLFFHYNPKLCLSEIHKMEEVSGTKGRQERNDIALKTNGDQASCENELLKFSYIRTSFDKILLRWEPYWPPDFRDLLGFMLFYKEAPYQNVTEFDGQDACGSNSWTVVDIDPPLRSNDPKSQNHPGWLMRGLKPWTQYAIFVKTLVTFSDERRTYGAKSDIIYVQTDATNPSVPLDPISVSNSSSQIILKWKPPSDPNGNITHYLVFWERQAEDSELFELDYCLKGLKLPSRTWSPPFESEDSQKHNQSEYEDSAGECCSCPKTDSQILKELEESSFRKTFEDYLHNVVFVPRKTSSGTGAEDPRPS
Sequence (P06213 763-1382 limits assumed): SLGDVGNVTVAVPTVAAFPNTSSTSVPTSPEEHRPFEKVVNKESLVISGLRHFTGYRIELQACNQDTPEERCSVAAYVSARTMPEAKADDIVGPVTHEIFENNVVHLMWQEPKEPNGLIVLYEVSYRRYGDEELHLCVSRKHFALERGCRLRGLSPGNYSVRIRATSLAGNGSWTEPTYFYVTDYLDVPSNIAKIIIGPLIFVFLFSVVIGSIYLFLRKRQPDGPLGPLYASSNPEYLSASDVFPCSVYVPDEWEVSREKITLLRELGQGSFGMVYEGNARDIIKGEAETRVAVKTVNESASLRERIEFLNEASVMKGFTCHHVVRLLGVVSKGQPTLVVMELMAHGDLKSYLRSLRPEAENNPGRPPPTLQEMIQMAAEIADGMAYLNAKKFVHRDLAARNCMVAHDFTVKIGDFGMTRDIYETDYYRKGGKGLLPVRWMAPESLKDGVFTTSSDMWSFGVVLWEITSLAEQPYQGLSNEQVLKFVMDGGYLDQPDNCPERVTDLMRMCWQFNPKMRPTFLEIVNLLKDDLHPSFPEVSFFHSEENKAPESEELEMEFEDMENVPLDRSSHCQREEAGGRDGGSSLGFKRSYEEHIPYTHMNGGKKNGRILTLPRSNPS

Row | SMILES | Kd
25 | CN1CCC(CNc2ccc3ncc(-c4cccc(OC(F)(F)F)c4)n3n2)CC1 [SGI-1776] | > 30 µM (inactive)
26 | O=c1sn(-c2cccc3ccccc23)c(=O)n1Cc1ccccc1 [TIDEGLUSIB] | > 30 µM (inactive)
27 | CC(=O)Nc1cccc(-n2c(=O)n(C3CC3)c(=O)c3c(Nc4ccc(I)cc4F)n(C)c(=O)c(C)c32)c1 [TRAMETINIB] | > 30 µM (inactive)

biological target: T4, Very long-chain specific acyl-CoA dehydrogenase, mitochondrial (Homo sapiens, UniProt P49748)
T4 sequence (P49748 whole entry): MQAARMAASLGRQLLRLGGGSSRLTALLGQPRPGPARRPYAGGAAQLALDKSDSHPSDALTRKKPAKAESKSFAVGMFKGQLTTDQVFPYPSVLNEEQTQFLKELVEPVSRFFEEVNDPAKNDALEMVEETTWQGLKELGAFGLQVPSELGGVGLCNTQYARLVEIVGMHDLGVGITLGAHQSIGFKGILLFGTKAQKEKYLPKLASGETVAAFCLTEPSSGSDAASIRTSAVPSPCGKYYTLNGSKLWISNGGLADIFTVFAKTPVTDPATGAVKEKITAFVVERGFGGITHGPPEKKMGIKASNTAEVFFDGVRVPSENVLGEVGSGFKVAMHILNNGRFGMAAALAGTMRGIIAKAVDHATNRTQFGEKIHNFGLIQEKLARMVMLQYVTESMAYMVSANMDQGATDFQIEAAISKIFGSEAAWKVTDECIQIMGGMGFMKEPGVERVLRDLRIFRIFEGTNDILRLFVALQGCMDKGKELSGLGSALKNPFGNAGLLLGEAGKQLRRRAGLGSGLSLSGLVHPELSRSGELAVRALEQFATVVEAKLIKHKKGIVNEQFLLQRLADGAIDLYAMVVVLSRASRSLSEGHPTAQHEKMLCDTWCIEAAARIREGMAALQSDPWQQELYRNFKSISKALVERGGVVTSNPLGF

Row | SMILES | Kd
28 | CN1CCC(CNc2ccc3ncc(-c4cccc(OC(F)(F)F)c4)n3n2)CC1 [SGI-1776] | > 30 µM (inactive)
29 | O=c1sn(-c2cccc3ccccc23)c(=O)n1Cc1ccccc1 [TIDEGLUSIB] | > 30 µM (inactive)
30 | CC(=O)Nc1cccc(-n2c(=O)n(C3CC3)c(=O)c3c(Nc4ccc(I)cc4F)n(C)c(=O)c(C)c32)c1 [TRAMETINIB] | > 30 µM (inactive)

biological target: Serine/threonine-protein kinase SIK3 (Homo sapiens, UniProt Q9Y2K2)
Sequence (Q9Y2K2 whole entry): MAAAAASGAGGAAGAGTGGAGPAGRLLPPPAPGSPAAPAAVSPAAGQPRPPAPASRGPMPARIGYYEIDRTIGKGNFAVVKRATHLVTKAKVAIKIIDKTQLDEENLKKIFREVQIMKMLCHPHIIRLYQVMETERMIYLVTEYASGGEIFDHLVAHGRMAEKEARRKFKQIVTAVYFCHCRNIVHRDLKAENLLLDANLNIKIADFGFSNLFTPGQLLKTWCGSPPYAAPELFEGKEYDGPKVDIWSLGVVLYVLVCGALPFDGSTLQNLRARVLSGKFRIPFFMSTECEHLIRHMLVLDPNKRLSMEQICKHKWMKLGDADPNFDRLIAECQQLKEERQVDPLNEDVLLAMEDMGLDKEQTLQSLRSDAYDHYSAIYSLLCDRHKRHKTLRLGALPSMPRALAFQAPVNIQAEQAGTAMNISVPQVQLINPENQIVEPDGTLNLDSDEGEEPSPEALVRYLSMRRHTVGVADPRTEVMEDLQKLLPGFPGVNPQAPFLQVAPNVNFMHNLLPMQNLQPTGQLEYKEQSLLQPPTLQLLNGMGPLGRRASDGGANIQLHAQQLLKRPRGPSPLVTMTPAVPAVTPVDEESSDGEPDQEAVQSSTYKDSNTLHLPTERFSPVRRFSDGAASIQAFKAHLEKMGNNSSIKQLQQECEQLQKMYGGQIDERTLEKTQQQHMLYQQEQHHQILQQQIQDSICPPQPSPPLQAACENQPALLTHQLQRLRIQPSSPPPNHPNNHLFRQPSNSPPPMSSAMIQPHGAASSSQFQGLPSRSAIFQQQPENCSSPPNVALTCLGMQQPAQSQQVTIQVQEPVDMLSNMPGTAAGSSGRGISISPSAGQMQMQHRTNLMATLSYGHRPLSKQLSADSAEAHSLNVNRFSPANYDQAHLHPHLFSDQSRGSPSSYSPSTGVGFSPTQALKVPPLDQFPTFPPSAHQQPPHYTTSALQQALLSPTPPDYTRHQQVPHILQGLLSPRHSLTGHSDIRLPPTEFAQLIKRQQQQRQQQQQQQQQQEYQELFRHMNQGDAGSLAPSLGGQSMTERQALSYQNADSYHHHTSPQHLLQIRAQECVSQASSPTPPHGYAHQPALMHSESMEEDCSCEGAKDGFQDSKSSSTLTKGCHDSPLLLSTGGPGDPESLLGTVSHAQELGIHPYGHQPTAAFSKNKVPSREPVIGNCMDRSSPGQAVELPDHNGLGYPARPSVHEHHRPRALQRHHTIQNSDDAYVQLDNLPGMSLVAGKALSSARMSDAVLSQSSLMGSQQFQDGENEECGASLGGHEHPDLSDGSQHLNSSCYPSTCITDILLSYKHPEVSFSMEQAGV

Row | SMILES | Kd
31 | CN1CCC(CNc2ccc3ncc(-c4cccc(OC(F)(F)F)c4)n3n2)CC1 [SGI-1776] | > 30 µM (inactive)
32 | O=c1sn(-c2cccc3ccccc23)c(=O)n1Cc1ccccc1 [TIDEGLUSIB] | > 30 µM (inactive)
33 | CC(=O)Nc1cccc(-n2c(=O)n(C3CC3)c(=O)c3c(Nc4ccc(I)cc4F)n(C)c(=O)c(C)c32)c1 [TRAMETINIB] | > 30 µM (inactive)

biological target: Serine/threonine-protein kinase 10 (Homo sapiens, UniProt O94804)
Sequence (O94804 whole entry): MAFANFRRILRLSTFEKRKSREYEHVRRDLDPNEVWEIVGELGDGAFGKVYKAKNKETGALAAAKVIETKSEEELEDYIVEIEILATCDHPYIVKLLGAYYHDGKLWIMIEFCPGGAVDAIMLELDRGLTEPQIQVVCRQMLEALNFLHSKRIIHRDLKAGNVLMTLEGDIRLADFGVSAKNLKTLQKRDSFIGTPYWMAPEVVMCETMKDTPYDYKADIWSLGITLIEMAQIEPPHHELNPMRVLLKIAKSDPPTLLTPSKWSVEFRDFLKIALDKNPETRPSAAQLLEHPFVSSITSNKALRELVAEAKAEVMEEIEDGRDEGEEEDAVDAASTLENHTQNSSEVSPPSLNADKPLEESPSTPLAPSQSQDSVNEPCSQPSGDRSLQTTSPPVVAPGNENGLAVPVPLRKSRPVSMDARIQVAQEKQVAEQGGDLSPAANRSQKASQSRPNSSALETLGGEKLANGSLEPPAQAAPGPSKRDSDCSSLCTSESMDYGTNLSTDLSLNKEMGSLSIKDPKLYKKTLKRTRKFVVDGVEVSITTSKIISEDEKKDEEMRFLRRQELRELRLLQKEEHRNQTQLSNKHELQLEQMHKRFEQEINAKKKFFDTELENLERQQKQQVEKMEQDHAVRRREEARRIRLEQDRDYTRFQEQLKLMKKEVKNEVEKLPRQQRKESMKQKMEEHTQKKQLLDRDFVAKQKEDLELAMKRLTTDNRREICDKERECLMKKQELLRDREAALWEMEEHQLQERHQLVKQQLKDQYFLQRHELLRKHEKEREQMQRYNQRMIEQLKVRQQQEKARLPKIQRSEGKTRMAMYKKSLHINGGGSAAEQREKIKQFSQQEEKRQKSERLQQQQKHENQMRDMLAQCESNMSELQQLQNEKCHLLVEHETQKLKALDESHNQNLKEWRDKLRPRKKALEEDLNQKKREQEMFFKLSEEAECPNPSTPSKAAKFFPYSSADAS

Row | SMILES | Kd
34 | CN1CCC(CNc2ccc3ncc(-c4cccc(OC(F)(F)F)c4)n3n2)CC1 [SGI-1776] | 2.16 µM (active)
35 | O=c1sn(-c2cccc3ccccc23)c(=O)n1Cc1ccccc1 [TIDEGLUSIB] | > 30 µM (inactive)
36 | CC(=O)Nc1cccc(-n2c(=O)n(C3CC3)c(=O)c3c(Nc4ccc(I)cc4F)n(C)c(=O)c(C)c32)c1 [TRAMETINIB] | > 30 µM (inactive)
